Test results: patent EP4282435A1, “FORMULATIONS OF ACTIVE PHARMACEUTICAL INGREDIENTS AND EXCIPIENTS IN ICELLS VIA HYDROPHOBIC ION PAIRING” (Danmarks Tekniske Universitet, priority 2022, dated 2023)
Structures can show the parent of a compound that is named as a salt. Where two headings read alike, the source gives them in different places.

Experiments:
[1] = Procedure: After removing the supernatant, the complex was dissolved in methanol, transferred to a new glass vial and the solvent was dried under a gentle nitrogen flow. […] ICell was proportionally added to a vial containing Abaloparatide in its native form to achieve a final Abaloparatide concentration of 1 mg/g. Abaloparatide-HIP complexes were pre-dissolved in DMSO (corresponding to 5% weight of the final formulation), followed by the proportional addition of ICell to obtain a final Abaloparatide concentration of 1 mg/g.
S. aureus strain S54F9 = assay: Microbiological assay, Disc Diffusion Assay; type: cell-based, Staphylococcus aureus; details: Example 24, wells: 0.5 mg linoleic acid in DMSO; 0.5 mg vancomycin hydrochloride; 45 µl HIP complex + 45 µl PBS; 24 hours at 37 °C
Procedure: Then, 3 wells were carved out with the use of the broad side of an autoclaved 1 ml pipette tip.
This setup was repeated for three experimental replicates. Each plate was incubated for 24 hours at 37 °C, before inspection.
Then, 3 wells were carved out with the use of the broad side of an autoclaved 1 ml pipette tip. In one well, 0.5 mg linoleic acid was injected as 90 µl 0.22 µm-sterile-filtered dimethyl sulfoxide. In a second well, 90 µl autoclaved phosphate-buffered saline with 0.5 mg vancomycin hydrochloride was injected. […] The plate was incubated for 24 hours at 37 °C, before inspection.

[2] = SuBen:GTH:DMSO (60:15:25) ICell, visual

| solubility in ICell [1] | SMILES | antimicrobial activity (clearance of S. aureus) (S. aureus strain S54F9) | solubility in ICell [2] |
| --- | --- | --- | --- |
| insoluble | CC[C@H](C)[C@H](NC(=O)[C@H](CO)NC(=O)[C@H](CCCCN)NC(=O)CNC(=O)[C@H](CCCCN)NC(=O)[C@H](CC(=O)O)NC(=O)[C@H](Cc1cnc[nH]1)NC(=O)[C@H](CC(C)C)NC(=O)[C@H](CC(C)C)NC(=O)[C@H](CCC(N)=O)NC(=O)[C@H](Cc1cnc[nH]1)NC(=O)[C@H](CCC(=O)O)NC(=O)[C@H](CO)NC(=O)[C@@H](NC(=O)[C@H](C)N)C(C)C)C(=O)N[C@@H](CCC(N)=O)C(=O)N[C@@H](CC(=O)O)C(=O)N[C@@H](CC(C)C)C(=O)N[C@@H](CCCNC(=N)N)C(=O)N[C@@H](CCCNC(=N)N)C(=O)N[C@@H](CCCNC(=N)N)C(=O)N[C@@H](CCC(=O)O)C(=O)N[C@@H](CC(C)C)C(=O)N[C@@H](CC(C)C)C(=O)N[C@@H](CCC(=O)O)C(=O)N[C@@H](CCCCN)C(=O)N[C@@H](CC(C)C)C(=O)N[C@@H](CC(C)C)C(=O)NC(C)(C)C(=O)N[C@@H](CCCCN)C(=O)N[C@@H](CC(C)C)C(=O)N[C@@H](Cc1cnc[nH]1)C(=O)N[C@H](C(=O)N[C@@H](C)C(N)=O)[C@@H](C)O [Abaloparatide] | – | – |
| – | CN[C@H](CC(C)C)C(=O)N[C@H]1C(=O)N[C@@H](CC(N)=O)C(=O)N[C@H]2C(=O)N[C@H]3C(=O)N[C@H](C(=O)N[C@H](C(=O)O)c4cc(O)cc(O)c4-c4cc3ccc4O)[C@H](O)c3ccc(c(Cl)c3)Oc3cc2cc(c3O[C@@H]2O[C@H](CO)[C@@H](O)[C@H](O)[C@H]2O[C@H]2C[C@](C)(N)[C@H](O)[C@H](C)O2)Oc2ccc(cc2Cl)[C@H]1O [Vancomycin hydrochloride] | clearance of S. aureus bacteria | not dissolvable |
